Patent publication US20240025856A1, “1,2,3,4-TETRAHYDROQUINOLINE DERIVATIVES AS INHIBITORS OF THE YAP/TAZ-TEAD ACTIVATION FOR TREATING CANCER” (KATHOLIEKE UNIVERSITEIT LEUVEN, priority 2020, published 2024)

system: YAP/TAZ-TEAD transcription; test: Reporter gene assay for measuring the inhibition of YAP/TAZ-TEAD transcription (TEAD-responsive element luciferase reporter in Hek293T cells); assay type: cell-based; conditions: Hek293T cells transiently transfected with TEAD-responsive element luciferase reporter; 24 hours incubation
How it was run: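 Readout is SteadyLite luciferase luminescence from a TEAD-responsive element reporter transiently transfected into Hek293T cells, exposed to compounds for 24 h at 37 °C/5% CO2. IC50 derived from percent inhibition, scaled between vehicle basal activity (0%) and positive control inhibitor (100%).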

SMILES	IC50 [nM]
FC(F)(F)c1ccc(N2CC(C3CC(Br)=NO3)Cc3ccccc32)cc1 (single isomer, unassigned) [Cpd. No. 194(Dia1)-En2, 3-bromo-5-(1-(4-(trifluoromethyl)phenyl)-1,2,3,4-tetrahydroquinolin-3-yl)-4,5-dihydroisoxazole]	> 20000
OCCNC1Cc2ccccc2N(c2ccc(C(F)(F)F)cc2)C1 (single isomer, unassigned) [043-En2, (R)- or (S)-2-((1-(4-(trifluoromethyl)phenyl)-1,2,3,4-tetrahydroquinolin-3-yl)amino)ethan-1-ol]	< 1000
C=CC(=O)NCC1Cc2c(Cc3noc(=O)[nH]3)cccc2N(c2ccc(C(F)(F)F)cc2)C1 (stereo not drawn) [Cpd. No. 168-En2, N-((5-((5-oxo-4,5-dihydro-1,2,4-oxadiazol-3-yl)methyl)-1-(4-(trifluoromethyl)phenyl)-1,2,3,4-tetrahydroquinolin-3-yl)methyl)acrylamide]	< 1000

same assay, conditions: Homo sapiens, HEK-293T, 24 h, Hek293T cells transiently transfected with TEAD-responsive element luciferase reporter; 24 hours incubation

SMILES	IC50 [nM]
C=CC(=O)NC1Cc2ccccc2N(c2cccc(F)c2)C1 (stereo not drawn) [compound 024, N-(1-(3-fluorophenyl)-1,2,3,4-tetrahydroquinolin-3-yl)acrylamide]	< 1000
C=CC(=O)NCC1Cc2c(C(=O)NS(=O)(=O)C3CC3)cccc2N(c2ccc(C(F)(F)F)cc2)C1 (stereo not drawn) [Cpd. No. 158, 3-(acrylamidomethyl)—N-(cyclopropylsulfonyl)-1-(4-(trifluoromethyl)phenyl)-1,2,3,4-tetrahydroquinoline-5-carboxamide]	> 20000
C=CC(=O)NCC1Cc2ccccc2N(c2ccc(C=O)cc2)C1 (stereo not drawn) [compound 159, N-((1-(4-formylphenyl)-1,2,3,4-tetrahydroquinolin-3-yl)methyl)acrylamide]	< 1000
C=CC(=O)NC1Cc2c(Nc3cccnc3)cccc2N(c2ccc(C(F)(F)F)cc2)C1 (stereo not drawn) [compound 070, N-(5-(pyridin-3-ylamino)-1-(4-(trifluoromethyl)phenyl)-1,2,3,4-tetrahydroquinolin-3-yl)acrylamide]	< 1000
C=CC(=O)NC1Cc2ccccc2N(Cc2cccc(C(F)(F)F)c2)C1 (stereo not drawn) [compound 182, N-(1-(3-(trifluoromethyl)benzyl)-1,2,3,4-tetrahydroquinolin-3-yl)acrylamide]	< 1000
N#CCC(=O)NC1Cc2ccccc2N(c2ccc(C(F)(F)F)cc2)C1 (stereo not drawn) [compound 052, 2-cyano-N-(1-(4-(trifluoromethyl)phenyl)-1,2,3,4-tetrahydroquinolin-3-yl)acetamide]	1000 to 20000
C=CC(=O)NC1Cc2ccccc2N(c2cccc(OC)c2)C1 (stereo not drawn) [compound 006, N-(1-(3-methoxyphenyl)-1,2,3,4-tetrahydroquinolin-3-yl)acrylamide]	< 1000
CCC(=O)NCC1Cc2c(Cc3ccccc3)cccc2N(c2ccc(C(F)(F)F)cc2)C1 (stereo not drawn) [compound 130, N-((5-benzyl-1-(4-(trifluoromethyl)phenyl)-1,2,3,4-tetrahydroquinolin-3-yl)methyl)propionamide]	< 1000
C=CC(=O)NCC1Cc2ccccc2N(c2ccc(C)cc2C)C1 (stereo not drawn) [compound 116, N-((1-(2,4-dimethylphenyl)-1,2,3,4-tetrahydroquinolin-3-yl)methyl)acrylamide]	< 1000
C=CC(=O)NC1Cc2ccccc2N(c2ccc(C3CCCCC3)cc2)C1 (stereo not drawn) [compound 019, N-(1-(4-cyclohexylphenyl)-1,2,3,4-tetrahydroquinolin-3-yl)acrylamide]	< 1000
C=CC(=O)NCC1Cc2ccccc2N(c2ccc(F)cc2F)C1 (stereo not drawn) [compound 102, N-((1-(2,4-difluorophenyl)-1,2,3,4-tetrahydroquinolin-3-yl)methyl)acrylamide]	< 1000
C=CC(=O)NCC1Cc2ccccc2N(c2ccc(Cl)cc2)C1 (stereo not drawn) [compound 089, N-((1-(4-chlorophenyl)-1,2,3,4-tetrahydroquinolin-3-yl)methyl)acrylamide]	< 1000
C=CC(=O)NCC1Cc2ccccc2N(c2cccc(F)c2F)C1 (stereo not drawn) [compound 109, N-((1-(2,3-difluorophenyl)-1,2,3,4-tetrahydroquinolin-3-yl)methyl)acrylamide]	< 1000
CCC(=O)NCC1Cc2ccccc2N(c2ccc(C(F)F)nc2)C1 (stereo not drawn) [compound 152, N-((1-(6-(difluoromethyl)pyridin-3-yl)-1,2,3,4-tetrahydroquinolin-3-yl)methyl)propionamide]	1000 to 20000
C=CC(=O)NC1Cc2ccccc2N(c2cccc(F)c2F)C1 (stereo not drawn) [compound 025, N-(1-(2,3-difluorophenyl)-1,2,3,4-tetrahydroquinolin-3-yl)acrylamide]	< 1000
C=CC(=O)NC1Cc2cnccc2N(c2ccc(C(F)(F)F)cc2)C1 (stereo not drawn) [compound 082, N-(1-(4-(trifluoromethyl)phenyl)-1,2,3,4-tetrahydro-1,6-naphthyridin-3-yl)acrylamide]	1000 to 20000
N#CCCNC1Cc2ccccc2N(c2ccc(C(F)(F)F)cc2)C1 (stereo not drawn) [compound 053, 3-((1-(4-(trifluoromethyl)phenyl)-1,2,3,4-tetrahydroquinolin-3-yl)amino)propanenitrile]	1000 to 20000
C=CC(=O)NC1Cc2ccccc2N(c2ccc(C)cc2C)C1 (stereo not drawn) [compound 034, N-(1-(2,4-dimethylphenyl)-1,2,3,4-tetrahydroquinolin-3-yl)acrylamide]	< 1000

Results, then the compound that gave them:

IC50 [nM]	SMILES
< 1000	C=CC(=O)NC1Cc2c(Nc3ccccc3)cccc2N(c2ccc(C(F)(F)F)cc2)C1 (stereo not drawn) [compound 069, N-(5-(phenylamino)-1-(4-(trifluoromethyl)phenyl)-1,2,3,4-tetrahydroquinolin-3-yl)acrylamide]
< 1000	C=CC(=O)NCC1Cc2ccccc2N(c2ccc(C(F)F)cc2)C1 (stereo not drawn) [compound 105, N-((1-(4-(difluoromethyl)phenyl)-1,2,3,4-tetrahydroquinolin-3-yl)methyl)acrylamide]
< 1000	C=CC(=O)NC1Cc2c(NC(=O)OC(C)(C)C)cccc2N(c2ccc(C(F)(F)F)cc2)C1 (stereo not drawn) [compound 074, tert-butyl (3-acrylamido-1-(4-(trifluoromethyl)phenyl)-1,2,3,4-tetrahydroquinolin-5-yl)carbamate]
> 20000	C=CC(=O)NC1Cc2c(C(=O)NC#N)cccc2N(c2ccc(C(F)(F)F)cc2)C1 (stereo not drawn) [Cpd. No. 169, 3-acrylamido-N-cyano-1-(4-(trifluoromethyl)phenyl)-1,2,3,4-tetrahydroquinoline-5-carboxamide]
< 1000	C=CC(=O)NCC1Cc2ccccc2N(c2cc(F)cc(F)c2)C1 (stereo not drawn) [compound 111, N-((1-(3,5-difluorophenyl)-1,2,3,4-tetrahydroquinolin-3-yl)methyl)acrylamide]
< 1000	C=CC(=O)NC1Cc2c(Cc3cccc(F)c3)cccc2N(c2ccc(C(F)(F)F)cc2)C1 (stereo not drawn) [compound 063, N-(5-(3-fluorobenzyl)-1-(4-(trifluoromethyl)phenyl)-1,2,3,4-tetrahydroquinolin-3-yl)acrylamide]
> 20000	C=CC(=O)NC1Cc2c(-c3noc(=O)[nH]3)cccc2N(c2ccc(C(F)(F)F)cc2)C1 (stereo not drawn) [compound 166, N-(5-(5-oxo-4,5-dihydro-1,2,4-oxadiazol-3-yl)-1-(4-(trifluoromethyl)phenyl)-1,2,3,4-tetrahydroquinolin-3-yl)acrylamide]
1000 to 20000	NCC1Cc2ccccc2N(c2ccc(C(F)(F)F)cc2)C1 (stereo not drawn) [170 (Int-10), (1-(4-(trifluoromethyl)phenyl)-1,2,3,4-tetrahydroquinolin-3-yl)methanamine]
1000 to 20000	CNS(=O)(=O)CCNC1Cc2ccccc2N(c2ccc(C(F)(F)F)cc2)C1 (stereo not drawn) [compound 051, N-methyl-2-((1-(4-(trifluoromethyl)phenyl)-1,2,3,4-tetrahydroquinolin-3-yl)amino)ethane-1-sulfonamide]
1000 to 20000	CS(=O)(=O)CCNC1Cc2ccccc2N(c2ccc(C(F)(F)F)cc2)C1 (stereo not drawn) [compound 049, N-(2-(methylsulfonyl)ethyl)-1-(4-(trifluoromethyl)phenyl)-1,2,3,4-tetrahydroquinolin-3-amine]
< 1000	C=CC(=O)NCC1Cc2c(Cc3noc(=O)[nH]3)cccc2N(c2ccc(C(F)(F)F)cc2)C1 (stereo not drawn) [Cpd. No. 168, N-((5-((5-oxo-4,5-dihydro-1,2,4-oxadiazol-3-yl)methyl)-1-(4-(trifluoromethyl)phenyl)-1,2,3,4-tetrahydroquinolin-3-yl)methyl)acrylamide]
< 1000	C=CC(=O)NCC1Cc2ccccc2N(C(=O)C2CCCCC2)C1 (stereo not drawn) [compound 180, N-((1-(cyclohexanecarbonyl)-1,2,3,4-tetrahydroquinolin-3-yl)methyl)acrylamide]
< 1000	C=CC(=O)NCC1Cc2ccccc2N(c2cccc(OC)c2)C1 (stereo not drawn) [compound 090, N-((1-(3-methoxyphenyl)-1,2,3,4-tetrahydroquinolin-3-yl)methyl)acrylamide]
< 1000	C=CC(=O)NCC1Cc2c(Cc3ccccc3)cccc2N(c2ccc(C(F)(F)F)cc2)C1 (stereo not drawn) [compound 129, N-((5-benzyl-1-(4-(trifluoromethyl)phenyl)-1,2,3,4-tetrahydroquinolin-3-yl)methyl)acrylamide]
< 1000	C=CC(=O)NCC1Cc2ccccc2N(c2ccc(C#N)nc2)C1 (stereo not drawn) [compound 151, N-((1-(6-cyanopyridin-3-yl)-1,2,3,4-tetrahydroquinolin-3-yl)methyl)acrylamide]
1000 to 20000	C=CC(=O)NC1Cc2ccccc2N(c2ccc(C(=O)NC)cc2)C1 (stereo not drawn) [compound 014, 4-(3-acrylamido-3,4-dihydroquinolin-1(2H)-yl)-N-methylbenzamide]
> 20000	CC(=O)NCC1Cc2c(C(=O)O)cccc2N(c2ccc(C(F)(F)F)cc2)C1 (stereo not drawn) [compound 155, 3-(acetamidomethyl)-1-(4-(trifluoromethyl)phenyl)-1,2,3,4-tetrahydroquinoline-5-carboxylic acid]
< 1000	C=CC(=O)NCC1Cc2cc(OC)ccc2N(c2ccc(C(F)(F)F)cc2)C1 (stereo not drawn) [compound 131, N-((6-methoxy-1-(4-(trifluoromethyl)phenyl)-1,2,3,4-tetrahydroquinolin-3-yl)methyl)acrylamide]
